From US20230340011A1 (Asteroid Therapeutics, priority 2022, published 2023)
pEC50: −log10 of the molar value.

The compounds below were run against LXRβ (Homo sapiens (Human), UniProt P55055) (assay: In vitro assay LXRβ: PathHunter NHR CHO cells, LXRβ / Steroid Receptor Co-activator Peptide enzyme fragment complementation). Conditions: PathHunter NHR CHO cells, full-length human LXRβ and SRCP, chemiluminescent signal; read-out: LXRβ PPI.
Assay type: cell-based
Outline: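 Enzyme fragment complementation read-out: CHO cells stably expressing ProLink-tagged full-length human LXRβ plus nuclear enzyme acceptor–SRCP fusion, seeded and held overnight at 37° C. Medium with charcoal-dextran filtered serum; final vehicle 1%. Chemiluminescence measured after signal generation.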

Sequence of LXRβ (P55055 whole entry, the tested form may be a part): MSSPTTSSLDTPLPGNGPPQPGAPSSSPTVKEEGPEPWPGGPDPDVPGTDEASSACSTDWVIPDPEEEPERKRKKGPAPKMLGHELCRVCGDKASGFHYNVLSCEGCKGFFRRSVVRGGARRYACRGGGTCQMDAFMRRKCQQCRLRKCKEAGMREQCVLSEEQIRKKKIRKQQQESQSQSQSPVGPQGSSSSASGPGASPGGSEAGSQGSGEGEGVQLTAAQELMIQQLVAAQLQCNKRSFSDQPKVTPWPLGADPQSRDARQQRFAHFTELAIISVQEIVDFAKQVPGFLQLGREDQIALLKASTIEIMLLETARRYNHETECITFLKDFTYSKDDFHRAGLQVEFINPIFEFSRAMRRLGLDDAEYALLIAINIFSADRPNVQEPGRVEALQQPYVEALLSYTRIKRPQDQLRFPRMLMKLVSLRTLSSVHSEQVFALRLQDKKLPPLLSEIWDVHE

`C[C@H](CCC(=O)N1CC(C)(C)[C@@H]2COC[C@@H]21)[C@H]1CC[C@H]2[C@@H]3CC=C4C[C@@H](O)CC[C@]4(C)[C@H]3CC[C@]12C` [Example 138, (4R)-1-(3,3-dimethylhexahydro-1H-furo[3,4-b]pyrrol-1-yl)-4-((3S,8S,9S,10R,13R,14S,17R)-3-hydroxy-10,13-dimethyl-2,3,4,7,8,9,10,11,12,13,14,15,16,17-tetradecahydro-1H-cyclopenta[a]phenanthren-17-yl)pentan-1-one] and `C[C@@H]1CCCN(C(=O)CC[C@@H](C)[C@H]2CC[C@H]3[C@@H]4CC=C5C[C@@H](O)CC[C@]5(C)[C@H]4CC[C@]23C)O1` [Example 60, (R)-4-((3S,8S,9S,10R,13R,14S,17R)-3-hydroxy-10,13-dimethyl-2,3,4,7,8,9,10,11,12,13,14,15,16,17-tetradecahydro-1H-cyclopenta[a]phenanthren-17-yl)-1-((R)-6-methyl-1,2-oxazinan-2-yl)pentan-1-one] fall in the same range of pEC50: 6.00 to 6.60 for the first, 6.00 to 6.60 for the second.

First: CO[C@H]1CCCN(C(=O)CC[C@@H](C)[C@H]2CC[C@H]3[C@@H]4CC=C5C[C@@H](O)CC[C@]5(C)[C@H]4CC[C@]23C)C1 [Example 300, (R)-4-((3S,8S,9S,10R,13R,14S,17R)-3-hydroxy-10,13-dimethyl-2,3,4,7,8,9,10,11,12,13,14,15,16,17-tetradecahydro-1H-cyclopenta[a]phenanthren-17-yl)-1-((S)-3-methoxypiperidin-1-yl)pentan-1-one]
Second: C[C@H](CCC(=O)N1CC[C@H](Oc2ccncn2)C1)[C@H]1CC[C@H]2[C@@H]3CC=C4C[C@@H](O)CC[C@]4(C)[C@H]3CC[C@]12C [Example 216, (4R)-4-[(1R,3aS,3bS,7S,9aR,9bS,11aR)-7-hydroxy-9a,11a-dimethyl-1H,2H,3H,3aH,3bH,4H,6H,7H,8H,9H,9aH,9bH,10H,11H,11aH-cyclopenta[a]phenanthren-1-yl]-1-[(3S)-3-(pyrimidin-4-yloxy)pyrrolidin-1-yl]pentan-1-one]
The pEC50 of the first is higher: 6.00 to 6.60 for the first, under 5.00 for the second.

Compared with `C[C@H](CCC(=O)N1CCC(Oc2cnccn2)CC1)[C@H]1CC[C@H]2[C@@H]3CC=C4C[C@@H](O)CC[C@]4(C)[C@H]3CC[C@]12C` [Example 220, (R)-4-((3S,8S,9S,10R,13R,14S,17R)-3-hydroxy-10,13-dimethyl-2,3,4,7,8,9,10,11,12,13,14,15,16,17-tetradecahydro-1H-cyclopenta[a]phenanthren-17-yl)-1-(4-(pyrazin-2-yloxy)piperidin-1-yl)pentan-1-one], `C[C@H](CCC(=O)N1CCN(c2cccnc2)CC1)[C@H]1CC[C@H]2[C@@H]3CC=C4C[C@@H](O)CC[C@]4(C)[C@H]3CC[C@]12C` [Example 306, (4R)-4-[(1R,3aS,3bS,7S,9aR,9bS,11aR)-7-hydroxy-9a,11a-dimethyl-1H,2H,3H,3aH,3bH,4H,6H,7H,8H,9H,9aH,9bH,10H,11H,11aH-cyclopenta[a]phenanthren-1-yl]-1-[4-(pyridin-3-yl)piperazin-1-yl]pentan-1-one] is lower in pEC50: 5.00 to 6.00 for the first, under 5.00 for the second.

`C[C@H](OC(=O)CN(C)C)[C@H]1CC[C@H]2[C@@H]3CC=C4C[C@@H](O)CC[C@]4(C)[C@H]3CC[C@]12C` [Example 143, (S)-1-((3S,8S,9S,10R,13S,14S,17S)-3-hydroxy-10,13-dimethyl-2,3,4,7,8,9,10,11,12,13,14,15,16,17-tetradecahydro-1H-cyclopenta[a]phenanthren-17-yl)ethyl dimethylglycinate] and `CON(C)C(=O)[C@H](C)C[C@@H](C)[C@H]1CC[C@H]2[C@@H]3CC=C4C[C@@H](O)CC[C@]4(C)[C@H]3CC[C@]12C` [Example 141, (2R,4R)-4-[(1R,3aS,3bS,7S,9aR,9bS,11aR)-7-hydroxy-9a,11a-dimethyl-2,3,3a,3b,4,6,7,8,9,9a,9b,10,11,11a-tetradecahydro-1H-cyclopenta[a]phenanthren-1-yl]-N-methoxy-N,2-dimethylpentanamide] cannot be ordered by pEC50: under 5.00 for the first, under 5.00 for the second.

`C[C@H](CCC(=O)N1CCN(c2ccccn2)CC1)[C@H]1CC[C@H]2[C@@H]3CC=C4C[C@@H](O)CC[C@]4(C)[C@H]3CC[C@]12C` [Example 307, (R)-4-((3S,8S,9S,10R,13R,14S,17R)-3-hydroxy-10,13-dimethyl-2,3,4,7,8,9,10,11,12,13,14,15,16,17-tetradecahydro-1H-cyclopenta[a]phenanthren-17-yl)-1-(4-(pyridin-2-yl)piperazin-1-yl)pentan-1-one] and `C[C@H](CCC(=O)N1CCN(c2ncccn2)CC1)[C@H]1CC[C@H]2[C@@H]3CC=C4C[C@@H](O)CC[C@]4(C)[C@H]3CC[C@]12C` [Example 305, (R)-4-((3S,8S,9S,10R,13R,14S,17R)-3-hydroxy-10,13-dimethyl-2,3,4,7,8,9,10,11,12,13,14,15,16,17-tetradecahydro-1H-cyclopenta[a]phenanthren-17-yl)-1-(4-(pyrimidin-2-yl)piperazin-1-yl)pentan-1-one] cannot be ordered by pEC50: under 5.00 for the first, under 5.00 for the second.

`C[C@H](CCC(=O)N1CCN(Cc2cnn(C)c2)CC1)[C@H]1CC[C@H]2[C@@H]3CC=C4C[C@@H](O)CC[C@]4(C)[C@H]3CC[C@]12C` [Example 223, (R)-4-((3S,8S,9S,10R,13R,14S,17R)-3-hydroxy-10,13-dimethyl-2,3,4,7,8,9,10,11,12,13,14,15,16,17-tetradecahydro-1H-cyclopenta[a]phenanthren-17-yl)-1-(4-((1-methyl-1H-pyrazol-4-yl)methyl)piperazin-1-yl)pentan-1-one] and `C[C@H](CCC(=O)N1CCN(c2cncnc2)CC1)[C@H]1CC[C@H]2[C@@H]3CC=C4C[C@@H](O)CC[C@]4(C)[C@H]3CC[C@]12C` [Example 222, (R)-4-((3S,8S,9S,10R,13R,14S,17R)-3-hydroxy-10,13-dimethyl-2,3,4,7,8,9,10,11,12,13,14,15,16,17-tetradecahydro-1H-cyclopenta[a]phenanthren-17-yl)-1-(4-(pyrimidin-5-yl)piperazin-1-yl)pentan-1-one] cannot be ordered by pEC50: under 5.00 for the first, under 5.00 for the second.

`COCCNC(=O)OC[C@@H](C)[C@H]1CC[C@H]2[C@@H]3CC=C4C[C@@H](O)CC[C@]4(C)[C@H]3CC[C@]12C` [Example 460, (2S)-2-[(1R,3aS,3bS,7S,9aR,9bS,11aS)-7-hydroxy-9a,11a-dimethyl-1H,2H,3H,3aH,3bH,4H,6H,7H,8H,9H,9aH,9bH,10H,11H,11aH-cyclopenta[a]phenanthren-1-yl]propyl N-(2-methoxyethyl)carbamate] and `C[C@H](CCC(=O)N1CCC(CN(C)S(C)(=O)=O)CC1)[C@H]1CC[C@H]2[C@@H]3CC=C4C[C@@H](O)CC[C@]4(C)[C@H]3CC[C@]12C` [Example 230, N-((1-((R)-4-((3S,8S,9S,10R,13R,14S,17R)-3-hydroxy-10,13-dimethyl-2,3,4,7,8,9,10,11,12,13,14,15,16,17-tetradecahydro-1H-cyclopenta[a]phenanthren-17-yl)pentanoyl)piperidin-4-yl)methyl)-N-methylmethanesulfonamide] cannot be ordered by pEC50: under 5.00 for the first, under 5.00 for the second.
